From ChEMBL document CHEMBL5634144, “Design, synthesis and biological evaluation of novel DCLK1 inhibitor containing purine skeleton for the treatment of pancreatic cancer” (Eur J Med Chem, 2023)
Active and inactive are the calls of the source. No cut-off for these calls is given here.

Legend:
[1] = tested on: SW1990; experiment: Induction of cell cycle arrest at G2/M phase in human SW1990 cells at 10 uM incubated for 6 days by PI staining based flow cytometry (reference value: 29.15 %); assay type: functional; settings: time 6 day
[2] = tested on: SW1990; experiment: Induction of cell cycle arrest at G0/G1 phase in human SW1990 cells at 10 uM incubated for 6 days by PI staining based flow cytometry (reference value: 49.65 %); assay type: functional; settings: time 6 day
[3] = tested on: SW1990; experiment: Inhibition of cell migration in human SW1990 cells at 10 uM by transwell assay; assay type: functional, cell-based
[4] = tested on: SW1990; experiment: Induction of apoptosis in human SW1990 cells assessed as early apoptotic cells at 10 uM incubated for 6 days by Annexin V/PI staining based flow cytometry (reference value: 4.55 %); assay type: functional; settings: time 6 day
[5] = tested on: CAKI-1; experiment: Antiproliferative activity against human CAKI-1 cells assessed as inhibition cell proliferation incubated for 6 days by MTT assay; assay type: functional, cell-based; settings: CAKI-1, 144 h
[6] = tested on: SW1990; experiment: Antiproliferative activity against human SW1990 cells assessed as inhibition cell proliferation incubated for 6 days by MTT assay; assay type: functional, cell-based; settings: SW1990, 144 h
[7] = tested on: SW1990; experiment: Inhibition of cell invasion in human SW1990 cells at 10 uM by transwell assay; assay type: functional, cell-based
[8] = tested on: SW1990; experiment: Induction of apoptosis in human SW1990 cells assessed as viable cells at 10 uM incubated for 6 days by Annexin V/PI staining based flow cytometry (reference value: 92.93 %); assay type: functional; settings: SW1990, 144 h, time 6 day, read-out: Activity
[9] = tested on: SW1990; experiment: Induction of apoptosis in human SW1990 cells assessed as late apoptotic cells at 10 uM incubated for 6 days by Annexin V/PI staining based flow cytometry (reference value: 2.01 %); assay type: functional; settings: time 6 day
[10] = tested on: HCT-116; experiment: Antiproliferative activity against human HCT-116 cells assessed as inhibition cell proliferation incubated for 6 days by MTT assay; assay type: functional, cell-based; settings: HCT-116, 144 h
[11] = molecular target: T1, Serine/threonine-protein kinase DCLK1 (Homo sapiens, UniProt O15075); experiment: Inhibition of DCLK1 (unknown origin) in presence of 33P-ATP
T1 sequence (O15075 whole entry): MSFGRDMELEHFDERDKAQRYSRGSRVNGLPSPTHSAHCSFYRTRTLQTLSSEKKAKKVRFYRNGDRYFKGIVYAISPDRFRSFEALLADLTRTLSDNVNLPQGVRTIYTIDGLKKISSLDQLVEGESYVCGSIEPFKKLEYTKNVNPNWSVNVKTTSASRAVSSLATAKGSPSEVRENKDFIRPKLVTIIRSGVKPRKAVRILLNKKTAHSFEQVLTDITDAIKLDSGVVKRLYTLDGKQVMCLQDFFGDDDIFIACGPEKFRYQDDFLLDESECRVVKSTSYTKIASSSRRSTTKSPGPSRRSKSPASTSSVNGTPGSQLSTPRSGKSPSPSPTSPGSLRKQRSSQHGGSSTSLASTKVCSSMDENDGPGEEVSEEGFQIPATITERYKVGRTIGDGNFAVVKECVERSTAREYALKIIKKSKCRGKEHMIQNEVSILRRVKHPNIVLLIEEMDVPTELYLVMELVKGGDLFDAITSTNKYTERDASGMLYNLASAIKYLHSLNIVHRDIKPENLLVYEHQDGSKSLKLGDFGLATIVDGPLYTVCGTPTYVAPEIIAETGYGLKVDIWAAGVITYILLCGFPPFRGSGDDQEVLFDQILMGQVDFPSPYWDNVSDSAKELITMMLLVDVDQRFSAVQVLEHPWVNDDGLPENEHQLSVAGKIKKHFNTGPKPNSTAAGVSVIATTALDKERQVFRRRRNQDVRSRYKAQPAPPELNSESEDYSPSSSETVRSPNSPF

[12] = tested on: SW1990; experiment: Induction of apoptosis in human SW1990 cells assessed as necrotic cells at 10 uM incubated for 6 days by Annexin V/PI staining based flow cytometry (reference value: 0.50 %); assay type: functional; settings: time 6 day
[13] = tested on: SW1990; experiment: Induction of cell cycle arrest at S phase in human SW1990 cells at 10 uM incubated for 6 days by PI staining based flow cytometry (reference value: 21.20 %); assay type: functional; settings: time 6 day
[14] = molecular target: T1, Serine/threonine-protein kinase DCLK1; experiment: Inhibition of DCLK1 (unknown origin) preincubated for 10 mins followed by substrate/ATP addition measured after 60 mins by mobility shift assay
[15] = tested on: SW1990; experiment: Antitumor activity against human SW1990 cells xenografted in BALB/c nude mouse model assessed as tumor growth inhibition at 60 mg/kg, ip for 21 days consecutively relative to control; assay type: functional; settings: SW1990, 504 h, time 21 day, read-out: TGI

IC50 [6]: 14 µM
IC50 [10]: 6.2 µM
IC50 [11]: 0.0572 µM
IC50 [14]: 0.0379 µM
SMILES: COc1cc(N2CCN(C)CC2)ccc1Nc1ncc2c(n1)N(C)c1ccccc1C(=O)N2CC(F)(F)F
Activity [1]: 21.75%
Activity [2]: 61.36%
inhibition [3]: Active
Activity [4]: 18.23%
IC50 [5]: 12.2 µM
inhibition [7]: Active
viability at 10 µM [8]: 60.6%
Activity [9]: 12.13%
Activity [12]: 8.99%
Activity [13]: 16.89%
inhibition in vivo at 60 mg/kg [15]: 24.8%
